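Method: 48-hour compound exposure of cells in 96-well plates, five concentrations, linear interpolation of endpoints. GI50 is the concentration that inhibits growth by half. TGI denotes the concentration required for complete inhibition of growth.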
Legend:
Test in all cases: NCI tumour cell line growth inhibition, 48 h
A498 renal = system: A498 renal
ACHN renal = system: ACHN renal
COLO 205 colon = system: COLO 205 colon
HOP-92 NSCLC = system: HOP-92 NSCLC
MALME-3M melanoma = system: MALME-3M melanoma
MDA-MB-231 breast = system: MDA-MB-231 breast
OVCAR-5 ovarian = system: OVCAR-5 ovarian
SF-268 CNS = system: SF-268 CNS
TK-10 renal = system: TK-10 renal
U251 CNS = system: U251 CNS

| Compound | GI50 (A498 renal) | TGI (A498 renal) | GI50 (ACHN renal) | TGI (ACHN renal) | GI50 (COLO 205 colon) | TGI (COLO 205 colon) | GI50 (HOP-92 NSCLC) | TGI (HOP-92 NSCLC) | GI50 (MALME-3M melanoma) | TGI (MALME-3M melanoma) | GI50 (MDA-MB-231 breast) | TGI (MDA-MB-231 breast) | GI50 (OVCAR-5 ovarian) | TGI (OVCAR-5 ovarian) | GI50 (SF-268 CNS) | TGI (SF-268 CNS) | GI50 (TK-10 renal) | TGI (TK-10 renal) | GI50 (U251 CNS) | TGI (U251 CNS) |
| --- | --- | --- | --- | --- | --- | --- | --- | --- | --- | --- | --- | --- | --- | --- | --- | --- | --- | --- | --- | --- |
| O=C(CCCCCCNC(=O)c1cnc(N(c2ccccc2)c2ccccc2)nc1)NO | 2.5 µM | 14.8 µM | 3.99 µM | 23.2 µM | 1.79 µM | 4.1 µM | 2.13 µM | 15.7 µM | 0.73 µM | 5.03 µM | 2.99 µM | 14.7 µM | 3.14 µM | 26.1 µM | 3.77 µM | 33.2 µM | 2.07 µM | 12.5 µM | 3 µM | 15.6 µM |
| CC(=O)NC1C(OC[C@@H](CC(=O)N[C@@H](CC(=O)O)CC(=O)N[C@H](CC(=O)N[C@@H](CCCN)CC(=O)N[C@@H](CCCN)CC(=O)N[C@H](CC(N)=O)C(C)C)C(C)C)NC(=O)C[C@@H](N)C(C)C)OC(CO)C(O)C1O (stereo partly drawn) | > 100 µM | > 100 µM | > 100 µM | > 100 µM | > 100 µM | > 100 µM | > 100 µM | > 100 µM | > 100 µM | > 100 µM | > 100 µM | > 100 µM | > 100 µM | > 100 µM | > 100 µM | > 100 µM | > 100 µM | > 100 µM | > 100 µM | > 100 µM |
| C=C1C(=O)O[C@H]2[C@H]1CC/C(COC(=O)CSCSCC(=O)OC/C1=C/CC[C@@]3(C)O[C@H]3[C@H]3OC(=O)C(=C)[C@@H]3CC1)=C\CC[C@@]1(C)O[C@@H]21 | 3.83 µM | 14.8 µM | 1.33 µM | 2.6 µM | 1.34 µM | 3.06 µM | 1.39 µM | 2.85 µM | 1.58 µM | 3.29 µM | 1.39 µM | 3 µM | 1.95 µM | 3.92 µM | 1.79 µM | 4.31 µM | 1.92 µM | 3.67 µM | 1.7 µM | 3.85 µM |
| CCCCON(OC(=O)c1ccc2ccccc2c1)C(=O)c1ccccc1 | > 100 µM | > 100 µM | > 100 µM | > 100 µM | > 100 µM | > 100 µM | 44.8 µM | > 100 µM | > 100 µM | > 100 µM | > 100 µM | > 100 µM | > 100 µM | > 100 µM | > 100 µM | > 100 µM | > 100 µM | > 100 µM | > 100 µM | > 100 µM |
| C=C(C)[C@@H]1CC[C@]2(C)CC[C@]3(C)[C@H](CC[C@@H]4[C@@]5(C)CC[C@H](O)C(C)(C)[C@@H]5CC[C@]43C)[C@@H]12 |  | 32.6 µM |  | > 100 µM |  | > 100 µM |  | > 100 µM |  | > 100 µM |  | > 100 µM |  | > 100 µM |  | > 100 µM |  | > 100 µM |  | 41 µM |
| COc1cc(C(O)CCBr)c(OC)cc1C (stereo not drawn) |  | > 100 µM |  | > 100 µM |  | > 57 µM |  | > 100 µM |  | > 100 µM |  | > 72.7 µM |  | > 100 µM |  | > 100 µM |  | > 100 µM |  | > 100 µM |
| O.O.[NH-]C1(C(=O)O)CCCC1.[NH-]C1(C(=O)O)CCCC1.[Ni+2] |  | > 100 µM | > 100 µM | > 100 µM |  | > 100 µM |  | > 100 µM |  | > 100 µM | > 100 µM | > 100 µM |  | > 100 µM |  | > 100 µM | > 100 µM | > 100 µM |  | > 100 µM |
| CN(/N=C/c1cccc2cccnc12)c1ccc([N+](=O)[O-])cc1[N+](=O)[O-] |  | 43.7 µM |  | 59.3 µM |  | > 100 µM |  | 42.7 µM |  | 70.2 µM |  | 56.8 µM |  | > 89.6 µM |  | 58.6 µM |  | 54 µM |  | 29.1 µM |
| CCOC(=O)Nc1ccc2c(c1)/C(=N\NC(N)=S)c1ccccc1-2 | 2.39 µM | 8.18 µM | 3.87 µM | 15.7 µM | 3.74 µM | 15 µM | 8.49 µM | 62.5 µM | 9.23 µM | 33.4 µM | 3.48 µM | > 54.6 µM | 16.8 µM | 59.4 µM | 6.14 µM | 39.9 µM | 15.2 µM | > 68.5 µM | 4.54 µM | 40.9 µM |
| COc1cccc(N2CCN(CC(=O)N3CCN(c4nnc(-c5ccc(Cl)cc5)c(-c5ccc(Cl)cc5)n4)CC3)CC2)c1 | 19.6 µM | 52.1 µM | 10.8 µM | 32.1 µM | 22.2 µM | > 100 µM | 14.7 µM | 36.4 µM | 20.6 µM | > 100 µM | 34.2 µM | > 100 µM | > 100 µM | > 100 µM | > 100 µM | > 100 µM | 17.3 µM | 85.9 µM | 16.7 µM | > 100 µM |
